Test results published in PubChem BioAssay (NCI).
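Cells were grown in 96-well plates and exposed to each compound for 48 hours at five concentrations; endpoints were interpolated linearly between bracketing concentrations, or set to the highest concentration if not reached. The concentration for 50% growth inhibition is given as GI50. TGI: concentration producing complete growth inhibition.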

Legend:
Test in all cases: growth of human tumour cells (NCI), 48 h
SNB-19 CNS = test system: SNB-19 CNS
T-47D breast = test system: T-47D breast
DU-145 prostate = test system: DU-145 prostate
UACC-62 melanoma = test system: UACC-62 melanoma
A498 renal = test system: A498 renal
NCI/ADR-RES ovarian = test system: NCI/ADR-RES ovarian
RPMI-8226 leukemia = test system: RPMI-8226 leukemia
LOX IMVI melanoma = test system: LOX IMVI melanoma
BT-549 breast = test system: BT-549 breast
M14 melanoma = test system: M14 melanoma
HS 578T breast = test system: HS 578T breast
EKVX NSCLC = test system: EKVX NSCLC
MALME-3M melanoma = test system: MALME-3M melanoma
OVCAR-4 ovarian = test system: OVCAR-4 ovarian
SK-OV-3 ovarian = test system: SK-OV-3 ovarian
UACC-257 melanoma = test system: UACC-257 melanoma
CAKI-1 renal = test system: CAKI-1 renal
MDA-MB-231 breast = test system: MDA-MB-231 breast
SN12C renal = test system: SN12C renal
RXF 393 renal = test system: RXF 393 renal
U251 CNS = test system: U251 CNS
ACHN renal = test system: ACHN renal
NCI-H226 lung = test system: NCI-H226 lung
SNB-75 CNS = test system: SNB-75 CNS
SK-MEL-5 melanoma = test system: SK-MEL-5 melanoma
A549 NSCLC = test system: A549 NSCLC
TK-10 renal = test system: TK-10 renal
OVCAR-3 ovarian = test system: OVCAR-3 ovarian
OVCAR-8 ovarian = test system: OVCAR-8 ovarian
UO-31 renal = test system: UO-31 renal
NCI-H23 lung = test system: NCI-H23 lung
SK-MEL-28 melanoma = test system: SK-MEL-28 melanoma
SF-539 CNS = test system: SF-539 CNS
HCT-15 colon = test system: HCT-15 colon
SF-295 CNS = test system: SF-295 CNS
786-0 renal = test system: 786-0 renal
PC-3 prostate = test system: PC-3 prostate
NCI-H460 lung = test system: NCI-H460 lung
HCC-2998 colon = test system: HCC-2998 colon
K-562 leukemia = test system: K-562 leukemia
HOP-62 NSCLC = test system: HOP-62 NSCLC
HOP-92 NSCLC = test system: HOP-92 NSCLC
HT29 colon = test system: HT29 colon
SF-268 CNS = test system: SF-268 CNS
IGROV1 ovarian = test system: IGROV1 ovarian
HL-60(TB) leukemia = test system: HL-60(TB) leukemia
MOLT-4 leukemia = test system: MOLT-4 leukemia
NCI-H522 lung = test system: NCI-H522 lung
KM12 colon = test system: KM12 colon
SR leukemia = test system: SR leukemia
SW-620 colon = test system: SW-620 colon
MCF7 breast = test system: MCF7 breast
COLO 205 colon = test system: COLO 205 colon
SK-MEL-2 melanoma = test system: SK-MEL-2 melanoma
HCT-116 colon = test system: HCT-116 colon
CCRF-CEM leukemia = test system: CCRF-CEM leukemia
MDA-MB-435 = test system: MDA-MB-435
OVCAR-5 ovarian = test system: OVCAR-5 ovarian

Work on `Oc1ccc2ccccc2c1N=Nc1nccs1` yielded a TGI (SNB-19 CNS) of over 100 µM, a GI50 (T-47D breast) of 1.71 µM and a TGI (T-47D breast) of 12.6 µM. It also gave a GI50 (DU-145 prostate) of 2.17 µM, a TGI (DU-145 prostate) of 16 µM and a GI50 (UACC-62 melanoma) of 2.3 µM. It also gave a TGI (UACC-62 melanoma) of 24.3 µM, a GI50 (A498 renal) of 10.5 µM and a TGI (A498 renal) of over 96.7 µM. For the same molecule, the GI50 (NCI/ADR-RES ovarian) was 0.393 µM, the GI50 (RPMI-8226 leukemia) was 0.187 µM and the GI50 (LOX IMVI melanoma) was 0.328 µM. It also gave a TGI (LOX IMVI melanoma) of 17.5 µM, a GI50 (BT-549 breast) of 4.75 µM and a TGI (BT-549 breast) of 32.3 µM. The GI50 (M14 melanoma) was 2.97 µM, the TGI (M14 melanoma) was 18.3 µM and the GI50 (HS 578T breast) was 4.55 µM. For the same molecule, the TGI (HS 578T breast) was 45.2 µM, the GI50 (EKVX NSCLC) was 0.807 µM and the TGI (EKVX NSCLC) was over 54.3 µM. It also gave a GI50 (MALME-3M melanoma) of 2.41 µM, a TGI (MALME-3M melanoma) of 15.4 µM and a GI50 (OVCAR-4 ovarian) of 0.457 µM. It also gave a TGI (OVCAR-4 ovarian) of 16.8 µM, a GI50 (SK-OV-3 ovarian) of 1.98 µM and a TGI (SK-OV-3 ovarian) of 41.2 µM. The GI50 (UACC-257 melanoma) was 3.1 µM, the TGI (UACC-257 melanoma) was 16.4 µM and the GI50 (CAKI-1 renal) was 0.323 µM. The TGI (CAKI-1 renal) was 11.6 µM, the GI50 (MDA-MB-231 breast) was 0.745 µM and the TGI (MDA-MB-231 breast) was over 100 µM. For the same molecule, the GI50 (SN12C renal) was 1.77 µM, the TGI (SN12C renal) was 44 µM and the GI50 (RXF 393 renal) was 3.33 µM. It also gave a TGI (RXF 393 renal) of over 59.2 µM, a GI50 (U251 CNS) of 0.29 µM and a TGI (U251 CNS) of 13.4 µM. It also gave a GI50 (ACHN renal) of 0.27 µM, a TGI (ACHN renal) of 14 µM and a GI50 (NCI-H226 lung) of 2.75 µM. It also gave a TGI (NCI-H226 lung) of over 52.9 µM, a GI50 (SNB-75 CNS) of 1.46 µM and a TGI (SNB-75 CNS) of 24.7 µM. It also gave a GI50 (SK-MEL-5 melanoma) of 3.55 µM, a TGI (SK-MEL-5 melanoma) of 15.6 µM and a GI50 (A549 NSCLC) of 6.18 µM. It also gave a TGI (A549 NSCLC) of over 53.4 µM, a GI50 (TK-10 renal) of 8.28 µM and a TGI (TK-10 renal) of 22.2 µM. For the same molecule, the GI50 (OVCAR-3 ovarian) was 0.417 µM, the TGI (OVCAR-3 ovarian) was 8.99 µM and the GI50 (OVCAR-8 ovarian) was 0.494 µM. For the same molecule, the TGI (OVCAR-8 ovarian) was 42 µM, the GI50 (UO-31 renal) was 0.216 µM and the TGI (UO-31 renal) was 11.9 µM. For the same molecule, the GI50 (NCI-H23 lung) was 5.83 µM, the TGI (NCI-H23 lung) was 27.8 µM and the GI50 (SK-MEL-28 melanoma) was 2.55 µM. It also gave a TGI (SK-MEL-28 melanoma) of 18.6 µM, a GI50 (SF-539 CNS) of 2.33 µM and a TGI (SF-539 CNS) of 13.2 µM. The GI50 (HCT-15 colon) was 0.32 µM, the TGI (HCT-15 colon) was 19.6 µM and the GI50 (SF-295 CNS) was 3.93 µM. For the same molecule, the TGI (SF-295 CNS) was over 57.4 µM, the GI50 (786-0 renal) was 0.476 µM and the TGI (786-0 renal) was over 41.7 µM. The GI50 (PC-3 prostate) was 1.13 µM, the TGI (PC-3 prostate) was over 66.1 µM and the GI50 (NCI-H460 lung) was 0.839 µM. The TGI (NCI-H460 lung) was over 100 µM, the GI50 (HCC-2998 colon) was 3.61 µM and the TGI (HCC-2998 colon) was 33.2 µM. It also gave a GI50 (K-562 leukemia) of 0.438 µM, a TGI (K-562 leukemia) of over 100 µM and a GI50 (HOP-62 NSCLC) of 3.87 µM. It also gave a TGI (HOP-62 NSCLC) of 56.8 µM, a GI50 (HOP-92 NSCLC) of 0.389 µM and a TGI (HOP-92 NSCLC) of over 48.8 µM. It also gave a GI50 (HT29 colon) of 1.72 µM, a TGI (HT29 colon) of 23.3 µM and a GI50 (SF-268 CNS) of 0.312 µM. The TGI (SF-268 CNS) was over 100 µM, the GI50 (IGROV1 ovarian) was 0.172 µM and the TGI (IGROV1 ovarian) was 6.95 µM. For the same molecule, the GI50 (HL-60(TB) leukemia) was 0.267 µM, the TGI (HL-60(TB) leukemia) was over 100 µM and the GI50 (MOLT-4 leukemia) was 0.186 µM. For the same molecule, the TGI (MOLT-4 leukemia) was over 46.9 µM, the GI50 (NCI-H522 lung) was 2.22 µM and the TGI (NCI-H522 lung) was 12.4 µM. For the same molecule, the GI50 (KM12 colon) was 0.629 µM, the TGI (KM12 colon) was 19.9 µM and the GI50 (SR leukemia) was 0.111 µM. For the same molecule, the GI50 (SW-620 colon) was 0.396 µM, the TGI (SW-620 colon) was 19.5 µM and the GI50 (MCF7 breast) was 0.471 µM. For the same molecule, the TGI (MCF7 breast) was 16.7 µM, the GI50 (COLO 205 colon) was 1.6 µM and the TGI (COLO 205 colon) was 13.6 µM. The GI50 (SK-MEL-2 melanoma) was 3.09 µM, the TGI (SK-MEL-2 melanoma) was 34.5 µM and the GI50 (HCT-116 colon) was 0.213 µM. The TGI (HCT-116 colon) was 6.09 µM, the GI50 (CCRF-CEM leukemia) was 0.0932 µM and the GI50 (MDA-MB-435) was 3.03 µM. The TGI (MDA-MB-435) was 27.9 µM, the GI50 (OVCAR-5 ovarian) was 5.61 µM and the TGI (OVCAR-5 ovarian) was 25.6 µM.
